Laboratory results: ChEMBL document CHEMBL1759976, “Carbonic anhydrase inhibitors. Inhibition of the β-class enzymes from the fungal pathogens Candida albicans and Cryptococcus neoformans with branched aliphatic/aromatic carboxylates and their derivatives” (Bioorg Med Chem Lett, 2011)

Legend:
[1] = Inhibition of Cryptococcus neoformans Can2 beta-carbonic anhydrase by stopped flow CO2 hydration assay
[2] = Inhibition of Candida albicans Nce103 beta-carbonic anhydrase by stopped flow CO2 hydration assay
Carbonic anhydrase 1 = Carbonic anhydrase 1 (Homo sapiens, UniProt P00915); assay: Inhibition of human cytosolic carbonic anhydrase 1 by stopped flow CO2 hydration assay
Carbonic anhydrase 2 = Carbonic anhydrase 2 (Homo sapiens, UniProt P00918)

Chain of Carbonic anhydrase 1 (P00915 whole entry): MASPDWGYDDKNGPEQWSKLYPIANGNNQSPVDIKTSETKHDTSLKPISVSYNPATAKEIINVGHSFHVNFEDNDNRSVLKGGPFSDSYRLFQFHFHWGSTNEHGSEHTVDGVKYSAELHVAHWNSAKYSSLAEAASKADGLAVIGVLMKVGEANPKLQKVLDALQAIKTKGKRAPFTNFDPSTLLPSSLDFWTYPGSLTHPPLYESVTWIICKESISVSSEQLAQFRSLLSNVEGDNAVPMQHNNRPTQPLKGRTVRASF

Structure (SMILES) | Ki [1] [µM] | Ki [2] [µM] | Ki (Carbonic anhydrase 1) [µM] | Ki (Carbonic anhydrase 2) [µM]
CCCCC(CC)C(N)=O (centres undefined) | 0.39 | 5.7 |  | 
CCCC(C)C(=O)O (centres undefined) | 10.2 | 10.4 | 310 | 113
COc1ccc(C(=O)NN)cc1 | 0.087 | 0.81 | 7.84 | 5.75
CCC(C)CC(=O)O (centres undefined) | 34.9 | 11.1 | 104 | 281
CC(C)CCC(=O)O |  | 2.14 |  | 
CCCCC(C)C(=O)O (centres undefined) | 3.23 | 3.73 | 380 | 103
CCC(C)CCC(=O)O (centres undefined) | 0.8 | 1.25 | 420 | 112
CCCCC(CC)C(=O)O (centres undefined) | 0.95 | 43.1 | 450 | 93
CCCCCC(C)C(=O)O (centres undefined) | 39.3 | 11.7 |  | 110
CCCCC(CC)CCC(=O)O (centres undefined) | 41.2 | 37.9 | 380 | 
CCCCCCC(CCCC)C(=O)O (centres undefined) |  | 10.7 | 101 | 
O=C(O)c1ccc(F)cc1 | 0.13 | 1.09 | 7.39 | 3.34
O=C(O)c1ccc(I)cc1 | 5.46 | 5.17 |  | 
O=C(O)c1ccc([N+](=O)[O-])cc1 | 0.12 | 4.85 | 8.8 | 8.56
O=C(O)c1ccc(O)cc1 | 0.0095 | 0.11 | 7.61 | 
COc1ccc(C(=O)O)cc1 | 0.0099 | 0.15 | 9.06 | 8.03
Nc1cccc(C(=O)O)c1 | 3.06 | 3.4 | 8.79 | 8.63
N#Cc1ccc(C(=O)O)cc1 | 0.14 | 4.47 |  | 
CC(=O)Nc1ccc(C(=O)[O-])cc1.[Na+] | 0.32 | 0.34 | 4.04 | 7.28
O=C(O)c1ccc(CCl)cc1 | 3.65 | 4.71 |  | 

Structure (SMILES) | Ki [1] [µM] | Ki [2] [µM] | Ki (Carbonic anhydrase 1) [µM] | Ki (Carbonic anhydrase 2) [µM]
CN(C)c1ccc(C(=O)O)cc1 | 0.13 | 5.2 | 3.94 | 3.33
O=C(O)c1ccc(S(=O)(=O)N(Cl)Cl)cc1 | 0.12 | 4.97 | 3.88 | 1.96
CCCCC(CC)C(=O)OC (centres undefined) | 0.74 | 5.6 |  | 
CCCCC(CC)C(=O)NO (centres undefined) | 0.29 | 3.05 |  | 
CCCCC(CC)C(=O)NN (centres undefined) | 0.23 | 4.56 |  | 
COc1ccc(C(=O)NO)cc1 | 0.071 | 0.47 |  | 
COc1ccc(C(N)=O)cc1 | 0.062 | 0.54 | 4.34 | 2.18
CCCCC(CC)C(=O)O (centres undefined) [2-ETHYLHEXANOIC ACID] |  |  | 450 | 93
CC(=O)Nc1nnc(S(N)(=O)=O)s1 [ACETAZOLAMIDE] | 0.01 | 0.13 |  | 
Nc1ccc(C(=O)O)cc1 [AMINOBENZOATE SODIUM] | 0.12 | 2.95 | 8.4 | 8.13
COC(=O)c1ccc(OC)cc1 [METHYL 4-METHOXYBENZOATE] | 0.067 | 0.61 |  | 
CC(=O)[O-].[Na+] [SODIUM ACETATE] |  |  | 10.8 | 
CCCC(=O)[O-].[Na+] [SODIUM BUTYRATE] |  |  | 511 | 
O=C[O-].[Na+] [SODIUM FORMATE] |  |  | 1040 | 
CC(C)C(=O)[O-].[Na+] [SODIUM ISOBUTYRATE] | 3.81 | 0.98 | 120 | 350
CC(C)CC(=O)O [SODIUM ISOVALERATE] | 0.91 | 0.95 | 300 | 100
CCC(=O)[O-].[Na+] [SODIUM PROPIONATE] |  |  | 1010 | 
CCCCC(=O)[O-].[Na+] [SODIUM VALERATE] |  |  | 55.3 | 
COc1ccc(C(=O)O)cc1 [p-ANISIC ACID] |  |  | 9.06 | 8.03
